Results published in the supplement of paper PMC10307832.

Experiments:
Assay in all cases: relative viability (nuclei count vs DMSO), 5 days (fraction); higher = more cells survive
[1] = compound: C1CC(C2=C(C1)C3=C(N2)C=CC(=C3)Cl)C(=O)N [Selisistat] + CS(=O)(=O)CCNCc1ccc(-c2ccc3ncnc(Nc4ccc(OCc5cccc(F)c5)c(Cl)c4)c3c2)o1 [Lapatinib] (partner 2 µM)
Outline: (§1)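 The day after seeding in 1536-well plates, lung cancer cell lines were treated by pin tool with a single drug, or with a fixed anchor-drug dose together with five library-drug doses (not always all listed) in √10 steps. After 5 days, a combined fix-and-stain solution (final 0.05% Triton X-100, 1% formaldehyde, 1 ug/ml Hoechst) was added. Nuclei counted on 4× images gave relative viability as treated counts over vehicle counts, reported as the median of duplicate plates.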

[2] = compound: c1ccc2c(CCNc3ccc(Nc4ccncc4)cc3)c[nH]c2c1 [Serdemetan] + Cc1nc(NC(=O)N2CCC[C@H]2C(N)=O)sc1-c1ccnc(C(C)(C)C(F)(F)F)c1 [Alpelisib] (partner 2 µM)
Outline: as §1

[3] = compound: c1ccc2c(CCNc3ccc(Nc4ccncc4)cc3)c[nH]c2c1 [Serdemetan] + O=C(c1cc(Cc2n[nH]c(=O)c3ccccc23)ccc1F)N1CCN(C(=O)C2CC2)CC1 [Olaparib] (partner 8 µM)
Outline: as §1

[4] = compound: c1ccc2c(CCNc3ccc(Nc4ccncc4)cc3)c[nH]c2c1 [Serdemetan] + Cc1cc(Nc2cc(N3CCN(C)CC3)nc(Sc3ccc(NC(=O)C4CC4)cc3)n2)n[nH]1 [Tozasertib] (partner 0.1 µM)
Outline: as §1

Cell Line | relative viability ([1]; first compound 0.4 µM) | relative viability ([1]; first compound 1.265 µM) | relative viability ([1]; first compound 4 µM) | relative viability ([1]; first compound 12.65 µM) | relative viability ([1]; first compound 40 µM) | relative viability ([2]; first compound 0.04 µM) | relative viability ([2]; first compound 0.1265 µM) | relative viability ([2]; first compound 0.4 µM) | relative viability ([2]; first compound 4 µM) | relative viability ([3]; first compound 0.04 µM) | relative viability ([3]; first compound 0.1265 µM) | relative viability ([3]; first compound 0.4 µM) | relative viability ([3]; first compound 1.265 µM) | relative viability ([3]; first compound 4 µM) | relative viability ([4]; first compound 0.04 µM) | relative viability ([4]; first compound 0.1265 µM) | relative viability ([4]; first compound 0.4 µM) | relative viability ([4]; first compound 1.265 µM) | relative viability ([4]; first compound 4 µM) | relative viability ([2]; first compound 1.265 µM)
HARA | 0.726 | 0.691 | 0.71 | 0.778 | 0.904 | 0.783 | 0.819 | 0.741 | 0.391 | 0.875 | 0.892 | 0.674 | 0.476 | 0.362 | 0.0876 | 0.0858 | 0.0868 | 0.0805 | 0.0776 | –
HCC-15 | 0.878 | 0.864 | – | 0.867 | 1.01 | 0.924 | 0.825 | 0.856 | 0.579 | 0.673 | 0.667 | 0.57 | 0.38 | 0.386 | 0.377 | 0.367 | 0.377 | 0.294 | 0.283 | 0.531
HCC-44 | 0.983 | 1.16 | 1.01 | 1.02 | 1.13 | 0.714 | 0.772 | 0.75 | 0.636 | 0.94 | 0.943 | 0.979 | 0.851 | 0.815 | 1 | 1.04 | 0.765 | 0.915 | 0.869 | 0.532
HCC-78 | 0.811 | 0.891 | 0.448 | 0.589 | 0.658 | 0.337 | 0.36 | 0.349 | 0.262 | 0.847 | 0.731 | 0.749 | 0.79 | 0.592 | 0.414 | 0.354 | 0.363 | 0.329 | 0.303 | 0.364
HCC-366 | 1.09 | 0.977 | 0.899 | 0.971 | 1.07 | 0.403 | 0.434 | 0.208 | 0.0462 | 0.22 | 0.0954 | 0.0557 | 0.0411 | 0.0631 | 0.134 | 0.0681 | 0.0532 | 0.0456 | 0.042 | 0.0495
IA-LM | 0.723 | 0.931 | 0.817 | – | 0.894 | 0.726 | 0.834 | 0.729 | 0.568 | 0.883 | 0.886 | 0.839 | 0.392 | 0.396 | – | – | – | – | – | 0.535
LCLC-103H | – | – | – | – | – | 0.944 | 0.957 | 0.923 | 0.764 | 0.742 | 0.727 | 0.661 | 0.593 | 0.728 | 0.611 | 0.605 | 0.502 | 0.448 | 0.402 | 0.844
NCI-H441 | – | – | – | – | – | 0.85 | 0.678 | 0.803 | 0.513 | 0.513 | 0.422 | 0.5 | 0.3 | 0.281 | 0.719 | 0.669 | 0.687 | 0.709 | 0.605 | 0.524
NCI-H522 | – | – | – | – | – | – | – | – | – | 0.595 | 0.665 | 0.65 | 0.458 | 0.477 | 0.554 | 0.575 | 0.44 | – | 0.497 | –
NCI-H1299 | 0.967 | 0.947 | 0.961 | 0.991 | 0.964 | 0.992 | 0.996 | 1.03 | 0.968 | 0.953 | 0.91 | 0.869 | 0.787 | 0.57 | – | – | – | – | – | 0.96
NCI-H1563 | 1.03 | 0.95 | 0.881 | 0.825 | 0.921 | 0.89 | 0.893 | 0.931 | 0.763 | – | – | – | – | – | – | – | – | – | – | 0.815
NCI-H1623 | – | – | – | – | – | – | – | – | – | – | – | – | – | – | 0.421 | 0.517 | 0.349 | 0.385 | 0.399 | –
NCI-H1648 | – | – | – | – | – | – | – | – | – | – | 0.744 | 0.633 | 0.399 | 0.425 | – | 0.46 | 0.38 | 0.206 | 0.299 | –
NCI-H1650 | 0.918 | 0.74 | 0.579 | 0.685 | 0.693 | – | – | – | – | 0.692 | 0.781 | 0.802 | 0.671 | 0.419 | 0.415 | 0.483 | 0.405 | 0.389 | 0.351 | –
NCI-H1703 | 1.1 | 1.06 | 1.12 | 1.05 | 1.05 | 0.389 | 0.345 | 0.306 | 0.374 | 0.427 | 0.397 | 0.415 | 0.386 | 0.333 | – | – | – | – | – | 0.277
NCI-H1792 | 0.917 | 0.89 | – | 0.829 | 0.926 | 0.697 | 0.686 | 0.567 | 0.257 | 0.405 | 0.336 | 0.231 | 0.0956 | 0.116 | – | – | – | – | – | 0.529
NCI-H2342 | – | – | – | – | – | – | – | – | – | 0.621 | 0.445 | 0.416 | 0.236 | 0.334 | 0.607 | 0.553 | 0.605 | 0.493 | 0.408 | –
SW 900 | – | – | – | – | – | – | – | – | – | 1.03 | 0.892 | 0.861 | 0.691 | 0.459 | 0.494 | 0.413 | 0.441 | 0.329 | 0.359 | –
